One may read the solubility as the concentration that dissolves in the medium under given conditions. A higher solubility goes with a readily soluble substance. A word on the IC50: it is the midpoint of a concentration-inhibition curve. By CC50 is commonly meant the concentration at which the toxic effect on the cells reaches its halfway point. High values mean lower toxicity to the cells, low ones greater toxicity to the cells.

For 34 compounds, solubility, IC50 and CC50 results are on record in ChEMBL document CHEMBL3351924, “Detailed analysis and follow-up studies of a high-throughput screening for indoleamine 2,3-dioxygenase 1 (IDO1) inhibitors” (Eur J Med Chem, 2014).

SMILES strings stand for the structures. In brackets after ≈: the same amount, converted by molar mass. A value given as a limit tells only on which side of the number the result lay.

A short description of data set [1]: Solubility of the compound in pH 6.5 phosphate buffer containing 5% DMSO. Conditions: phosphate buffer containing 5% DMSO; call rule not given here.
In data set [2] the target is T1, Indoleamine 2,3-dioxygenase 1 (Homo sapiens, UniProt P14902). Nature of the data set: Inhibition of IDO1 (unknown origin) using L-tryptophan substrate incubated for 60 mins in presence of 0.01% Triton-X by HPLC.
T1 sequence (P14902 whole entry): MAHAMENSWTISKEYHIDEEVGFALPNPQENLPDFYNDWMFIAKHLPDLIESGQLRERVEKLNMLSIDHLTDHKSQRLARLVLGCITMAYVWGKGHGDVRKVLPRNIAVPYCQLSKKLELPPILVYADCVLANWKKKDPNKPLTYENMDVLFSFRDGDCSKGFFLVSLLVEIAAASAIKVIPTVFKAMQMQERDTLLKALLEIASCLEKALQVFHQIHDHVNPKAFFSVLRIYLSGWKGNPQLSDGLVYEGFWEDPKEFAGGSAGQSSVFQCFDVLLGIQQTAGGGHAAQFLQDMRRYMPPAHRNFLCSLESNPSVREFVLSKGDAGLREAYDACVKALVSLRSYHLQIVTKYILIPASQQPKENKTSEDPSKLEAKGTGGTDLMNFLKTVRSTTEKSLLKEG
Data set [3] has as its target Indoleamine 2,3-dioxygenase 1 (Mus musculus, UniProt P28776). Nature of the data set: Inhibition of mouse IDO1 expressed in mouse P815B cells using L-tryptophan substrate incubated for 18 hrs by HPLC based cellular assay. Format: cell-based.
Data set [4] deals with T1, Indoleamine 2,3-dioxygenase 1. Description: Inhibition of IDO1 (unknown origin) using L-tryptophan substrate incubated for 60 mins by HPLC.
Data set [5] can be described thus: Cytotoxicity against mouse P815B cells after 24 hrs by MTS/PMS assay. Conditions: P815B cells.
In data set [6] the target is Tryptophan 2,3-dioxygenase (Mus musculus, UniProt P48776). Nature of the data set: Inhibition of mouse TDO expressed in mouse P815B cells using L-tryptophan substrate incubated for 24 hrs by HPLC based cellular assay. It is filed as cell-based. Conditions: p815b.
Chain of Tryptophan 2,3-dioxygenase (P48776 whole entry): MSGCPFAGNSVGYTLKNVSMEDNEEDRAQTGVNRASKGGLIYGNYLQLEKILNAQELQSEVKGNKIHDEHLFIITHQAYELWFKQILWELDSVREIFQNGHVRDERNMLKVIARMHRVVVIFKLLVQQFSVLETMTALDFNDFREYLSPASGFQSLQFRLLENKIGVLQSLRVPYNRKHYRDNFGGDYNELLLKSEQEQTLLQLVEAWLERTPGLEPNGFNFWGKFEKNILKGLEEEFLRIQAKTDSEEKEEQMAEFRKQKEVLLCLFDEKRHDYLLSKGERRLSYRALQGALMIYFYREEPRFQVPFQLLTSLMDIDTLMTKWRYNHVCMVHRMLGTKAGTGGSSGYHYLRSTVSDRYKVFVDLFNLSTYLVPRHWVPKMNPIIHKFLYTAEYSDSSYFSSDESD

Chain of Indoleamine 2,3-dioxygenase 1 (Mus musculus, UniProt P28776) (P28776 whole entry): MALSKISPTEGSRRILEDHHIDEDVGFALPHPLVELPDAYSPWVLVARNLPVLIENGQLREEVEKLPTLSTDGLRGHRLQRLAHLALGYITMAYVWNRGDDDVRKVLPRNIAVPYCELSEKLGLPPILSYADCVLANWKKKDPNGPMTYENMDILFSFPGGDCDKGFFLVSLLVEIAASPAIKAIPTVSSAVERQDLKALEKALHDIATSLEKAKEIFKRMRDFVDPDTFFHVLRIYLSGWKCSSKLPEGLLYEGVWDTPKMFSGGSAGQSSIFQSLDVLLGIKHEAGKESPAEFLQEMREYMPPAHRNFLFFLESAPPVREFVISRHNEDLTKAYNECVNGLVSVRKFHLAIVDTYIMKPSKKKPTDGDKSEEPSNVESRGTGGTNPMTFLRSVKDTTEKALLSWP

The compound `OC(Cn1ccnc1)c1ccccc1` (stereo unspecified) had a solubility in data set [1] greater than 1000 µM. Further, in data set [2], the IC50 result is “Not Active”.

For the compound `OC(Cn1ccnc1)c1ccc(Cl)cc1Cl` (stereo unspecified), the solubility in data set [1] is greater than 1000 µM. Moreover, the IC50 in data set [2] (read-out: IC50) stood at 130 µM.

Take `N=C(N)SCc1nc(-c2ccc(Cl)cc2)no1`: the IC50 in data set [3] (read-out: IC50) was 2.1 µM; in data set [4] (read-out: IC50), 0.89 µM; in data set [6], “Not Active”; in data set [2] (read-out: IC50), 1.2 µM. Moreover, it took 10 µM to reach half-maximal cytotoxicity in data set [5] (CC50 at 24 h). Further, the solubility in data set [1] was 1000 µM (≈ 269 µg/mL).

For the compound `OC(Cn1cncn1)c1ccc(Cl)cc1Cl` (stereo unspecified), the solubility in data set [1] was greater than 1000 µM. In addition, the IC50 result in data set [2] is given as “Not Active”.

Compound `OC(Cn1ccnc1)c1ccc(Cl)cc1` (stereo unspecified) registered a solubility in data set [1] greater than 1000 µM. Besides, in data set [2], the IC50 entry was “Not Active”.

`Cc1cc(N/C=C(\C#N)S(=O)(=O)c2ccccc2Cl)nc(C)n1`: the solubility in data set [1] was found to be 250 µM (≈ 87.2 µg/mL).

Take `NC(=S)N/N=C1\CCc2ccccc21`: the IC50 entry in data set [4] is recorded as “Not Active”. In data set [1], this compound had a solubility of 1000 µM (≈ 205 µg/mL).

As to `Nc1n[nH]c2cc(O)[nH]c(=O)c12`, in data set [4], the 50% inhibitory concentration (IC50) result is listed as “Not Active”. Besides, the solubility in data set [1] is 1000 µM (≈ 166 µg/mL).

In turn, `c1ccc(-n2ccnc2)cc1` displayed a solubility in data set [1] greater than 1000 µM. In addition, the IC50 entry in data set [2] was “Not Active”.

In data set [1], `CN(C)/C=N/C(=S)Nc1cccc(F)c1` registered a solubility of 1000 µM (≈ 225 µg/mL).

On to `NNC(=O)c1nn(-c2ccccc2)c(=O)c2c(N)scc12`, for which the concentration for half-maximal inhibition (IC50) result in data set [3] (p815b) is “Not Active”; in data set [4] (read-out: IC50), 13 µM; in data set [6] it was “Not Active”; in data set [2] (read-out: IC50) it was 15 µM. Besides, the CC50 at 24 h in data set [5] was greater than 25 µM. This compound also registered a solubility in data set [1] of 1000 µM (≈ 301 µg/mL).

Regarding `CCN(CC)c1ccc(NC(=O)C2CCCCC2)c(N(CC)CC)n1`, in data set [1], the solubility is 25 µM (≈ 8.66 µg/mL).

On to `CC1=C(C#N)C(c2ccc(-c3ccc(Cl)cc3[N+](=O)[O-])o2)C(C#N)=C(C)N1`, for which the IC50 entry in data set [4] is on record as “Not Active”. The same compound gave a solubility in data set [1] of 50 µM (≈ 19 µg/mL).

With `NC(=O)N/N=C/c1ccc(-c2ccc(C(F)(F)F)cc2[N+](=O)[O-])o1`, the IC50 entry in data set [4] is reported as “Not Active”. The solubility in data set [1] is 50 µM (≈ 17.1 µg/mL).

`Oc1c(Cl)cc(Cl)cc1/C=N/c1ccc2[nH]cnc2c1`: the solubility in data set [1] was 10 µM (≈ 3.06 µg/mL). In other words, the double-digit micromolar range.

On to `NC(=S)N/N=C/c1c(F)cccc1Cl`, for which the solubility in data set [1] came to 250 µM (≈ 57.9 µg/mL).

In data set [1], `Cc1cc(NS(=O)(=O)c2ccc(Cl)s2)no1` came in with a solubility of 1000 µM (≈ 279 µg/mL).

Compound `CNC(=S)N/N=C/c1ccc(OC)c(OC)c1` returned a solubility in data set [1] of 1000 µM (≈ 253 µg/mL).

In data set [1], `CC(C)(C)S(=O)(=O)/C(C#N)=C/c1ccsc1` came in with a solubility of 1000 µM (≈ 255 µg/mL).

In data set [1], `Cc1nn(-c2ccccc2)nc1CNC(=O)c1ccc2nsnc2c1` yielded a solubility of 50 µM (≈ 17.5 µg/mL).

In turn, `N#C/C(=C\c1c[nH]cn1)S(=O)(=O)c1ccc(Cl)cc1` yielded a solubility in data set [1] of 1000 µM (≈ 294 µg/mL).

In turn, `Oc1nc(=S)ccn1-c1nc(-c2ccccc2)sc1-c1ccccc1` showed a solubility in data set [1] of 50 µM (≈ 18.2 µg/mL).

The compound `Cn1cc(Cl)c(/C=C(\C#N)S(=O)(=O)C(C)(C)C)n1` registered a solubility in data set [1] of 1000 µM (≈ 288 µg/mL). Against the preceding compound, the solubility is about 20-fold higher.

As to `COc1ccc(-c2n[nH]cc2/C=C(/C#N)S(C)(=O)=O)cc1`, in data set [1], the solubility came out at 100 µM (≈ 30.3 µg/mL).

On to `COCCCNC(=O)N/N=C/c1ccco1`, for which the solubility in data set [1] is 1000 µM (≈ 225 µg/mL).

As to `N#C/C(=C\c1c[nH]cn1)S(=O)(=O)c1cccs1`, the solubility in data set [1] amounted to 1000 µM (≈ 265 µg/mL).

Compound `COc1ccccc1NC(=S)N/N=C/c1ccco1` displayed a solubility in data set [1] of 250 µM (≈ 68.8 µg/mL).

Take `Oc1ccc(Br)cc1/C=N/c1ccc2[nH]nnc2c1`: the IC50 entry in data set [4] is “Not Active”. In data set [1], the solubility came out at 10 µM (≈ 3.17 µg/mL).

For `CSC1=NNC(c2ccccn2)S1` (stereo unspecified), in data set [1], the solubility was 100 µM (≈ 21.1 µg/mL).

With `S=c1[nH]cc(-c2ccc(Cl)cc2)o1`, the IC50 result in data set [4] is recorded as “Not Active”. The solubility in data set [1] came to 100 µM (≈ 21.2 µg/mL).

`Clc1ccc(Sc2nc(-c3cccs3)ns2)cc1`: the solubility in data set [1] turned out to be 100 µM (≈ 31.1 µg/mL).

`O=C(CC(=O)c1cccnc1)c1cccnc1` gave a solubility in data set [1] of 1000 µM (≈ 226 µg/mL).

In data set [1], `Cc1cc(C)n2[nH]c(=S)nc2n1` showed a solubility of 1000 µM (≈ 180 µg/mL). In other words, the millimolar range.

As to `Clc1ccc(COCCn2ccnc2)c(Cl)c1`, the solubility in data set [1] was greater than 1000 µM. The IC50 result in data set [2] is listed as “Not Active”.
